What follows are compounds tested on Glutamate NMDA receptor (assay: Displacement of [3H]MK801 from NMDA receptor in rat brain neuronal membrane). Settings: not given; call rule not given here.
Assay type: cell membranes

Structure (SMILES) | Ki
COc1ccc2c(c1)C13CCCC[C@@H]1C(C2)NCC3 (single isomer, unassigned) | Not Active

Same assay, conditions: read-out: Ki

Structure (SMILES) | Ki
NCC(c1ccccc1)c1ccccc1 | 145 µM
COc1ccc2c(c1)[C@]13CCCC[C@@H]1[C@H](C2)NCC3 | 1.7 µM
C[C@@H](N)c1ccccc1 | 659 µM
C[C@H](N)c1ccccc1 | 622 µM
N[C@H](c1ccccc1)[C@H](N)c1ccccc1 | 4.12 µM
N[C@@H](c1ccccc1)[C@H](O)c1ccccc1 | 142 µM
N[C@H](CC1CCCCC1)C1CCCCC1 | 138 µM
C[C@](N)(Cc1ccccc1)c1ccccc1 | 0.79 µM
N[C@@H](Cc1ccccc1)c1ccccc1 | 0.7 µM
C[C@@](N)(Cc1ccccc1)c1ccccc1 | 8.08 µM
N[C@H](c1ccccc1)[C@@H](O)c1ccccc1 | 15.7 µM
c1ccc(C[C@H](c2ccccc2)N2CCCCC2)cc1 | 5.25 µM
N[C@H](Cc1ccccn1)c1ccccc1 | 84 µM
c1ccc(C[C@@H](c2ccccc2)N2CCCCC2)cc1 | 0.12 µM
N[C@]1(c2ccccc2Cl)CCCCC1=O | 4.18 µM
N[C@H](Cc1ccccc1)c1ccccc1 | 25.1 µM

Structure (SMILES) | Ki
N[C@@H](c1ccccc1)[C@@H](N)c1ccccc1 | 51 µM
N[C@@]1(c2ccccc2Cl)CCCCC1=O | 55 µM
CN[C@@]1(c2ccccc2Cl)CCCCC1=O | 5.68 µM
COC(=O)[C@@H](N)c1ccccc1 | 1980 µM
COC(=O)[C@H](N)c1ccccc1 | 1370 µM
N[C@@H](CC1CCCCC1)C1CCCCC1 | 271 µM
N[C@H]1C[C@@H]1c1ccccc1 [(+)-TRANYLCYPROMINE] | 269 µM
NC(c1ccccc1)c1ccccc1 [AMINODIPHENYLMETHANE] | 64 µM
NCc1ccccc1 [BENZYLAMINE] | 1060 µM
C[C@H](N)Cc1ccccc1 [DEXTROAMPHETAMINE] | 300 µM
CN[C@]1(c2ccccc2Cl)CCCCC1=O [ESKETAMINE] | 0.96 µM
N[C@@H](Cc1ccccn1)c1ccccc1 [LANICEMINE] | 14 µM
C[C@@H](N)Cc1ccccc1 [LEVAMFETAMINE] | 625 µM
c1ccc(C2(N3CCCCC3)CCCCC2)cc1 [PHENCYCLIDINE] | 0.27 µM
NCCc1ccccc1 [PHENETHYLAMINE] | 753 µM
N[C@@H]1C[C@H]1c1ccccc1.N[C@H]1C[C@@H]1c1ccccc1 [TRANYLCYPROMINE] | 544 µM

Reference: ChEMBL document CHEMBL1138618, “NMDA receptor affinities of 1,2-diphenylethylamine and 1-(1,2-diphenylethyl)piperidine enantiomers and of related compounds” (Bioorg Med Chem, 2009)
